Where “and” joins values, the source holds several entries; their conditions need not be identical. Equal entries are not always repeated.
Tested on: BDF1 mice, Adenocarcinoma 755 s.c., tumor weight T/C
Assay: NCI In Vivo Anticancer Drug Screen. Data for tumor model Adenocarcinoma 755 (subcutaneous) in B6D2F1 (BDF1) mice
Settings: endpoint: mean tumor weight, higher = larger tumour
How it was run: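 Compound activity was tested in mice carrying transplanted tumors. Survival or tumor size was measured, and each value is the treated-group measurement divided by that of the vehicle-treated control group (T/C).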

[1] = dose: 9.0 mg/kg/injection, schedule: Q01DX011 (ip), vehicle: carboxymethylcellulose (CMC)
[2] = dose: 25.0 mg/kg/injection, schedule: Q01DX011 (ip), vehicle: carboxymethylcellulose (CMC)
[3] = dose: 50.0 mg/kg/injection, schedule: Q01DX011 (ip), vehicle: carboxymethylcellulose (CMC)
[4] = dose: 100.0 mg/kg/injection, schedule: Q01DX011 (ip), vehicle: carboxymethylcellulose (CMC)
[5] = dose: 25.0 mg/kg/injection, schedule: Q01DX011 (ip), vehicle: methylcellulose (MC)
[6] = dose: 75.0 mg/kg/injection, schedule: Q01DX011 (ip), vehicle: methylcellulose (MC)
[7] = dose: 225.0 mg/kg/injection, schedule: Q01DX011 (ip), vehicle: methylcellulose (MC)

SMILES: CN(N=O)C(N)=O
- T/C (dose: 2.5 mg/kg/injection, schedule: Q01DX011 (ip), vehicle: methylcellulose (MC)): 109 % of control
- T/C (dose: 2.81 mg/kg/injection, schedule: Q01DX011 (ip), vehicle: carboxymethylcellulose (CMC)): 78 % of control
- T/C (dose: 3.16 mg/kg/injection, schedule: Q01DX011 (ip), vehicle: carboxymethylcellulose (CMC)): 78 % of control
- T/C (dose: 5.0 mg/kg/injection, schedule: Q01DX011 (ip), vehicle: methylcellulose (MC)): 97 % of control
- T/C (dose: 5.62 mg/kg/injection, schedule: Q01DX011 (ip), vehicle: carboxymethylcellulose (CMC)): 120 % of control
- T/C (dose: 6.32 mg/kg/injection, schedule: Q01DX011 (ip), vehicle: carboxymethylcellulose (CMC)): 76 % of control
- T/C (dose: 6.33 mg/kg/injection, schedule: Q01DX011 (ip), vehicle: carboxymethylcellulose (CMC)): 79 % of control
- T/C (dose: 7.2 mg/kg/injection, schedule: Q01DX011 (ip), vehicle: carboxymethylcellulose (CMC)): 108 % of control
- T/C [1]: 77 % of control
- T/C (dose: 10.0 mg/kg/injection, schedule: Q01DX011 (ip), vehicle: methylcellulose (MC)): 87 % of control
- T/C (dose: 10.12 mg/kg/injection, schedule: Q01DX011 (ip), vehicle: carboxymethylcellulose (CMC)): 109 % of control and 119 % of control
- T/C (dose: 12.0 mg/kg/injection, schedule: Q01DX011 (ip), vehicle: carboxymethylcellulose (CMC)): 79 % of control
- T/C (dose: 13.0 mg/kg/injection, schedule: Q01DX011 (ip), vehicle: carboxymethylcellulose (CMC)): 93 % of control
- T/C (dose: 15.0 mg/kg/injection, schedule: Q01DX011 (ip), vehicle: carboxymethylcellulose (CMC)): 97 % of control and 85 % of control
- T/C (dose: 18.0 mg/kg/injection, schedule: Q01DX011 (ip), vehicle: carboxymethylcellulose (CMC)): 13 % of control
- T/C (dose: 20.0 mg/kg/injection, schedule: Q01DX011 (ip), vehicle: methylcellulose (MC)): 27 % of control
- T/C (dose: 22.5 mg/kg/injection, schedule: Q01DX011 (ip), vehicle: carboxymethylcellulose (CMC)): 21 % of control and 42 % of control
- T/C [2]: 24 % of control

SMILES: Nc1ccc2ccccc2c1N=Nc1ccccc1
- T/C [2]: 68 % of control
- T/C [3]: 27 % of control
- T/C [4]: 34 % of control
- T/C (dose: 200.0 mg/kg/injection, schedule: Q01DX011 (ip), vehicle: carboxymethylcellulose (CMC)): 25 % of control

SMILES: CSc1nc(Cl)cc(NC(=O)CCl)n1
- T/C (dose: 60.0 mg/kg/injection, schedule: Q01DX011 (ip), vehicle: carboxymethylcellulose (CMC)): 124 % of control

SMILES: Brc1ncnc2nc[nH]c12
- T/C (dose: 1.12 mg/kg/injection, schedule: Q01DX011 (ip), vehicle: carboxymethylcellulose (CMC)): 99 % of control
- T/C (dose: 2.25 mg/kg/injection, schedule: Q01DX011 (ip), vehicle: carboxymethylcellulose (CMC)): 100 % of control
- T/C (dose: 4.5 mg/kg/injection, schedule: Q01DX011 (ip), vehicle: carboxymethylcellulose (CMC)): 43 % of control
- T/C [1]: 50 % of control
- T/C (dose: 9.37 mg/kg/injection, schedule: Q01DX011 (ip), vehicle: carboxymethylcellulose (CMC)): 10 % of control
- T/C (dose: 18.75 mg/kg/injection, schedule: Q01DX011 (ip), vehicle: carboxymethylcellulose (CMC)): 10 % of control
- T/C (dose: 37.5 mg/kg/injection, schedule: Q01DX011 (ip), vehicle: carboxymethylcellulose (CMC)): 2 % of control
- T/C (dose: 75.0 mg/kg/injection, schedule: Q01DX011 (ip), vehicle: carboxymethylcellulose (CMC)): 1 % of control and 6 % of control
- T/C (dose: 150.0 mg/kg/injection, schedule: Q01DX011 (ip), vehicle: carboxymethylcellulose (CMC)): 6 % of control

SMILES: N#[N+]c1n[nH]nc1C(N)=O
- T/C (dose: 6.25 mg/kg/injection, schedule: Q01DX011 (ip), vehicle: carboxymethylcellulose (CMC)): 94 % of control
- T/C (dose: 12.5 mg/kg/injection, schedule: Q01DX011 (ip), vehicle: carboxymethylcellulose (CMC)): 63 % of control

SMILES: Cn1c(=O)c2c(nc(COCc3nc4c(c(=O)n(C)c(=O)n4C)n3C)n2C)n(C)c1=O
- T/C [5]: 60 % of control
- T/C [6]: 82 % of control
- T/C [7]: 33 % of control

SMILES: Clc1cccc(CSc2ncnc3c2ncn3C2CCCCO2)c1 (stereo unspecified)
- T/C (dose: 30.0 mg/kg/injection, schedule: Q01DX011 (ip), vehicle: methylcellulose (MC)): 18 % of control
- T/C (dose: 100.0 mg/kg/injection, schedule: Q01DX011 (ip), vehicle: methylcellulose (MC)): 6 % of control

SMILES: C[C@]12CC[C@H](O)C[C@H]1CC[C@@H]1[C@@H]2CC[C@]2(C)[C@@H](C3=CC(=O)OC3)[C@@H](O)C[C@]12O
- T/C (dose: 3.0 mg/kg/injection, schedule: Q01DX011 (sc), vehicle: steriod suspending solution): 91 % of control
- T/C (dose: 25.0 mg/kg/injection, schedule: Q01DX011 (sc), vehicle: steriod suspending solution): 80 % of control
- T/C (dose: 50.0 mg/kg/injection, schedule: Q01DX011 (sc), vehicle: steriod suspending solution): 110 % of control

SMILES: Clc1ncnc2c1ncn2C1CCCO1 (stereo unspecified)
- T/C (dose: 2.34 mg/kg/injection, schedule: Q01DX011 (ip), vehicle: methylcellulose (MC)): 50 % of control
- T/C (dose: 4.68 mg/kg/injection, schedule: Q01DX011 (ip), vehicle: methylcellulose (MC)): 68 % of control
- T/C (dose: 9.37 mg/kg/injection, schedule: Q01DX011 (ip), vehicle: methylcellulose (MC)): 69 % of control
- T/C (dose: 18.75 mg/kg/injection, schedule: Q01DX011 (ip), vehicle: methylcellulose (MC)): 41 % of control
- T/C (dose: 37.5 mg/kg/injection, schedule: Q01DX011 (ip), vehicle: methylcellulose (MC)): 9 % of control
- T/C [6]: 1 % of control

SMILES: NS(=O)(=O)c1ncnc2nc[nH]c12
- T/C (dose: 3.1 mg/kg/injection, schedule: Q01DX011 (ip), vehicle: methylcellulose (MC)): 105 % of control
- T/C (dose: 6.2 mg/kg/injection, schedule: Q01DX011 (ip), vehicle: methylcellulose (MC)): 78 % of control
- T/C (dose: 12.5 mg/kg/injection, schedule: Q01DX011 (ip), vehicle: methylcellulose (MC)): 15 % of control
- T/C [5]: 3 % of control and 9 % of control

SMILES: O/N=C1\CCCC\C1=N/O
- T/C (dose: 200.0 mg/kg/injection, schedule: Q01DX011 (ip), vehicle: other): 55 % of control
- T/C (dose: 300.0 mg/kg/injection, schedule: Q01DX011 (ip), vehicle: other): 4 % of control

SMILES: Cn1c(=O)c2c(nc(C#N)n2C)n(C)c1=O
- T/C [5]: 104 % of control
- T/C [6]: 102 % of control
- T/C [7]: 58 % of control

SMILES: Cn1cnc2c(SCc3ccccc3)ncnc21
- T/C (dose: 63.0 mg/kg/injection, schedule: Q01DX011 (ip), vehicle: carboxymethylcellulose (CMC)): 3 % of control
- T/C (dose: 126.0 mg/kg/injection, schedule: Q01DX011 (ip), vehicle: carboxymethylcellulose (CMC)): 1 % of control
- T/C (dose: 252.0 mg/kg/injection, schedule: Q01DX011 (ip), vehicle: carboxymethylcellulose (CMC)): 1 % of control

SMILES: COc1cc([C@@H]2c3cc4c(cc3[C@H](O)[C@H]3COC(=O)[C@H]23)OCO4)cc(OC)c1OC
- T/C (dose: 0.13 mg/kg/injection, schedule: Q01DX011 (ip), vehicle: carboxymethylcellulose (CMC)): 102 % of control
- T/C (dose: 0.27 mg/kg/injection, schedule: Q01DX011 (ip), vehicle: carboxymethylcellulose (CMC)): 60 % of control and 80 % of control
- T/C (dose: 0.54 mg/kg/injection, schedule: Q01DX011 (ip), vehicle: carboxymethylcellulose (CMC)): 109 % of control
- T/C (dose: 0.55 mg/kg/injection, schedule: Q01DX011 (ip), vehicle: carboxymethylcellulose (CMC)): 76 % of control
- T/C (dose: 1.08 mg/kg/injection, schedule: Q01DX011 (ip), vehicle: carboxymethylcellulose (CMC)): 120 % of control
- T/C (dose: 1.1 mg/kg/injection, schedule: Q01DX011 (ip), vehicle: carboxymethylcellulose (CMC)): 117 % of control

SMILES: COc1cc2c3c(c4ccc(OC)c(OC)c4c2cc1OC)CN1CCC[C@@H]1C3
- T/C (dose: 5.0 mg/kg/injection, schedule: Q02DX006 (ip), vehicle: water): 65 % of control
- T/C (dose: 10.0 mg/kg/injection, schedule: Q02DX006 (ip), vehicle: water): 52 % of control
- T/C (dose: 15.0 mg/kg/injection, schedule: Q02DX006 (ip), vehicle: water): 33 % of control
- T/C (dose: 20.0 mg/kg/injection, schedule: Q02DX006 (ip), vehicle: water): 21 % of control

SMILES: Cc1cc(Nc2ccccc2Br)nc(N)n1
- T/C (dose: 15.0 mg/kg/injection, schedule: Q01DX011 (ip), vehicle: methylcellulose (MC)): 65 % of control
- T/C (dose: 31.0 mg/kg/injection, schedule: Q01DX011 (ip), vehicle: methylcellulose (MC)): 69 % of control
- T/C (dose: 62.0 mg/kg/injection, schedule: Q01DX011 (ip), vehicle: methylcellulose (MC)): 112 % of control
- T/C (dose: 125.0 mg/kg/injection, schedule: Q01DX011 (ip), vehicle: methylcellulose (MC)): 78 % of control
- T/C (dose: 250.0 mg/kg/injection, schedule: Q01DX011 (ip), vehicle: methylcellulose (MC)): 76 % of control

SMILES: CCOC(O)C(F)(F)F (stereo unspecified)
- T/C (dose: 22.0 mg/kg/injection, schedule: Q01DX011 (ip), vehicle: methylcellulose (MC)): 110 % of control
- T/C [2]: 83 % of control
- T/C (dose: 44.0 mg/kg/injection, schedule: Q01DX011 (ip), vehicle: methylcellulose (MC)): 78 % of control
- T/C [3]: 50 % of control
- T/C (dose: 88.0 mg/kg/injection, schedule: Q01DX011 (ip), vehicle: methylcellulose (MC)): 30 % of control
- T/C [4]: 32 % of control
